Laboratory results as given in patent publication US10294202B2, “Pyrrolidinones as herbicides” (FMC Corporation, priority 2013, dated 2019).

Legend:
[1] = test system: barnyardgrass; assay: Test A pre-/postemergence herbicide test; type: in vivo, Echinochloa crus-galli
Procedure, shortened: (§1)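 Both application timings used compounds in a non-phytotoxic solvent plus surfactant. Pre-emergence: soil sprayed directly after seeding into loam/sand. Post-emergence: foliage of 2–10 cm seedlings (1–2 leaves) sprayed. Injury rated ~10 days later, 0–100.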

[2] = test system: giant foxtail; assay: Test A pre-/postemergence herbicide test; type: in vivo, Setaria faberii
Procedure, shortened: as §1

[3] = test system: corn; assay: Test A pre-/postemergence herbicide test; type: in vivo, Zea mays; settings: Postemergence
Procedure, shortened: as §1

[4] = test system: ducksalad; assay: Test B flooded paddy test; type: in vivo, Heteranthera limosa; settings: 500 g ai/ha, Flood; scale of 0 to 100 where 0 is no effect and 100 is complete control
Procedure, shortened: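 2-leaf plants; flood 3 cm over soil; compound into paddy water; depth held. Greenhouse 13–15 d. Visual rating vs controls, 0 (no effect) to 100 (complete control); dash = not tested.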

[5] = test system: ryegrass, Italian; assay: Test C pre-/postemergence herbicide test; type: in vivo, Lolium multiflorum
Procedure, shortened: (§2)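 Herbicidal effect was judged by eye 13 to 15 days after treatment in the greenhouse, using a 0–100 scale against controls. Chemicals in a non-phytotoxic solvent with surfactant were sprayed onto planted loam/sand soil or onto plants 2 to 18 cm tall in a peat-based growing medium.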

[6] = test system: corn; assay: Test C pre-/postemergence herbicide test; type: in vivo, Zea mays
Procedure, shortened: as §2

[7] = test system: lambsquarters; assay: Test C pre-/postemergence herbicide test; type: in vivo, Chenopodium album
Procedure, shortened: as §2

[8] = test system: nutsedge, yellow; assay: Test C pre-/postemergence herbicide test; type: in vivo, Cyperus esculentus
Procedure, shortened: as §2

[9] = test system: soybean; assay: Test C pre-/postemergence herbicide test; type: in vivo, Glycine max
Procedure, shortened: as §2

[10] = test system: barnyardgrass; assay: Test C pre-/postemergence herbicide test; type: in vivo, Echinochloa crus-galli
Procedure, shortened: as §2

[11] = test system: waterhemp; assay: Test C pre-/postemergence herbicide test; type: in vivo, Amaranthus rudis
Procedure, shortened: as §2

[12] = Postemergence, 125 g ai/ha, visual rating on 0 to 100 scale (0 no effect, 100 complete control), approx. 10 days
[13] = Postemergence, 500 g ai/ha, 0 to 100 scale (0 no effect, 100 complete control)
[14] = Preemergence, 125 g ai/ha, 0 to 100 scale where 0 is no effect and 100 is complete control
[15] = Preemergence, 500 g ai/ha, visual rating on 0 to 100 scale (0 no effect, 100 complete control)
[16] = 125 g ai/ha, visual rating on 0 to 100 scale (0 no effect, 100 complete control), approx. 10 days
[17] = 500 g ai/ha, 0 to 100 scale (0 no effect, 100 complete control)
[18] = Postemergence, 31 g ai/ha, scale 0 to 100 (0 no effect, 100 complete control)
[19] = Postemergence, 62 g ai/ha, scale 0 (no effect) to 100 (complete control)
[20] = Postemergence, 125 g ai/ha, scale 0 to 100 (0 no effect, 100 complete control)
[21] = Postemergence, 250 g ai/ha, scale 0 to 100 (0 no effect, 100 complete control)
[22] = Preemergence, 62 g ai/ha, scale 0 to 100 (0 no effect, 100 complete control)
[23] = Preemergence, 125 g ai/ha, scale 0 to 100
[24] = Preemergence, 31 g ai/ha, scale 0 to 100, 0 is no effect and 100 is complete control
[25] = Preemergence, 125 g ai/ha, scale 0 to 100 (0 no effect, 100 complete control)

O=C1NCC(c2cccc(C(F)(F)F)c2)C1C(=O)Nc1ccccc1Cl (centres unmarked) [Compound 312]
20: Plant response rating, Waterhemp [11, 20] | Plant response rating, Waterhemp [11, 21]
50: Plant response rating, Lambsquarters [7, 23]
40: Plant response rating, Barnyardgrass [10, 18]
90: Plant response rating, Barnyardgrass [1, 13] | Barnyardgrass plant response rating [1, 15] | Plant response rating, Foxtail, Giant [2, 13] | Plant response rating, Foxtail, Giant [2, 14] | Foxtail, Giant plant response rating [2, 15] | Barnyardgrass plant response rating [10, 22] | Plant response rating, Barnyardgrass [10, 25]
0: Plant response rating, Ryegrass, Italian [5, 18] | Plant response rating, Ryegrass, Italian [5, 19] | Plant response rating, Corn [6, 18] | Lambsquarters plant response rating [7, 24] | Lambsquarters plant response rating [7, 22] | Plant response rating, Nutsedge, Yellow [8, 18] | Plant response rating, Nutsedge, Yellow [8, 19] | Plant response rating, Nutsedge, Yellow [8, 20] | Plant response rating, Nutsedge, Yellow [8, 21] | Nutsedge, Yellow plant response rating [8, 24] | Plant response rating, Nutsedge, Yellow [8, 23] | Plant response rating (scale of 0 to 100), Nutsedge, Yellow ([8]; Preemergence, 250 g ai/ha) | Plant response rating, Soybean [9, 18] | Plant response rating, Soybean [9, 19] | Plant response rating, Soybean [9, 20] | Plant response rating, Soybean [9, 21] | Soybean plant response rating [9, 22] | Plant response rating, Soybean [9, 23] | Plant response rating (scale of 0 to 100), Soybean ([9]; Preemergence, 250 g ai/ha) | Plant response rating, Waterhemp [11, 18]
15: Plant response rating, Corn [6, 19]
85: Barnyardgrass plant response rating [10, 24]
10: Plant response rating, Ryegrass, Italian [5, 21] | Plant response rating, Corn [6, 20] | Plant response rating, Corn [6, 21] | Corn plant response rating [6, 24]
65: Plant response rating, Lambsquarters [7, 18] | Plant response rating, Waterhemp [11, 23]
35: Plant response rating, Ryegrass, Italian [5, 20] | Plant response rating, Ryegrass, Italian [5, 23] | Nutsedge, Yellow plant response rating [8, 22]
80: Plant response rating, Barnyardgrass [1, 12] | Plant response rating, Barnyardgrass [1, 14] | Plant response rating, Foxtail, Giant [2, 12] | Plant response rating, Corn [3, 17] | Plant response rating (scale of 0 to 100), Waterhemp ([11]; Preemergence, 250 g ai/ha)
55: Plant response rating, Corn [6, 23] | Plant response rating, Lambsquarters [7, 21]
45: Plant response rating, Waterhemp [11, 19] | Waterhemp plant response rating [11, 22]
95: Plant response rating, Lambsquarters [7, 20] | Plant response rating (scale of 0 to 100; 0 is no effect, 100 is complete control), Barnyardgrass ([10]; Preemergence, 250 g ai/ha)
30: Ryegrass, Italian plant response rating [5, 22] | Plant response rating (scale of 0 to 100), Ryegrass, Italian ([5]; Preemergence, 250 g ai/ha)
75: Plant response rating, Lambsquarters [7, 19] | Plant response rating, Barnyardgrass [10, 21]
60: Plant response rating, Corn [3, 16] | Corn plant response rating [6, 22] | Plant response rating (scale of 0 to 100), Lambsquarters ([7]; Preemergence, 250 g ai/ha)
100: Plant response rating, Ducksalad [4]
70: Plant response rating (scale of 0 to 100), Corn ([6]; Preemergence, 250 g ai/ha) | Plant response rating, Barnyardgrass [10, 19] | Plant response rating, Barnyardgrass [10, 20]

O=C1NCC(c2cccc(C(F)(F)F)c2)C1C(=O)Nc1ccc(F)c(F)c1F (centres unmarked) [Compound 315]
5: Plant response rating, Ryegrass, Italian [5, 19]
0: Plant response rating, Ryegrass, Italian [5, 18] | Plant response rating, Corn [6, 18] | Plant response rating, Corn [6, 19] | Plant response rating, Nutsedge, Yellow [8, 18] | Plant response rating, Nutsedge, Yellow [8, 19] | Plant response rating, Nutsedge, Yellow [8, 20] | Plant response rating, Nutsedge, Yellow [8, 21] | Nutsedge, Yellow plant response rating [8, 24] | Nutsedge, Yellow plant response rating [8, 22] | Plant response rating, Soybean [9, 18] | Plant response rating, Soybean [9, 19] | Plant response rating, Soybean [9, 20] | Soybean plant response rating [9, 22] | Plant response rating, Soybean [9, 23] | Plant response rating (scale of 0 to 100), Soybean ([9]; Preemergence, 250 g ai/ha)
45: Plant response rating, Ryegrass, Italian [5, 21]
60: Plant response rating, Corn [6, 21] | Plant response rating, Lambsquarters [7, 18] | Plant response rating, Lambsquarters [7, 19] | Plant response rating, Waterhemp [11, 19] | Plant response rating, Waterhemp [11, 20]
40: Lambsquarters plant response rating [7, 24] | Lambsquarters plant response rating [7, 22]
95: Plant response rating (scale of 0 to 100; 0 is no effect, 100 is complete control), Barnyardgrass ([10]; Preemergence, 250 g ai/ha)
85: Plant response rating (scale of 0 to 100), Corn ([6]; Preemergence, 250 g ai/ha) | Plant response rating, Barnyardgrass [10, 21] | Plant response rating, Waterhemp [11, 23] | Plant response rating (scale of 0 to 100), Waterhemp ([11]; Preemergence, 250 g ai/ha)
10: Plant response rating, Corn [6, 20]
100: Plant response rating, Ducksalad [4]
90: Plant response rating, Barnyardgrass [1, 12] | Plant response rating, Barnyardgrass [1, 13] | Plant response rating, Barnyardgrass [1, 14] | Barnyardgrass plant response rating [1, 15] | Plant response rating, Foxtail, Giant [2, 12] | Plant response rating, Foxtail, Giant [2, 13] | Plant response rating, Foxtail, Giant [2, 14] | Foxtail, Giant plant response rating [2, 15] | Barnyardgrass plant response rating [10, 24] | Barnyardgrass plant response rating [10, 22] | Plant response rating, Barnyardgrass [10, 25]
20: Plant response rating, Nutsedge, Yellow [8, 23] | Plant response rating (scale of 0 to 100), Nutsedge, Yellow ([8]; Preemergence, 250 g ai/ha)
50: Ryegrass, Italian plant response rating [5, 22] | Plant response rating, Ryegrass, Italian [5, 23] | Plant response rating (scale of 0 to 100), Ryegrass, Italian ([5]; Preemergence, 250 g ai/ha) | Corn plant response rating [6, 24] | Plant response rating, Waterhemp [11, 18]
70: Plant response rating, Corn [3, 16] | Plant response rating, Lambsquarters [7, 23] | Plant response rating, Barnyardgrass [10, 20]
25: Plant response rating, Barnyardgrass [10, 18]
75: Waterhemp plant response rating [11, 22]
80: Plant response rating, Corn [3, 17] | Corn plant response rating [6, 22] | Plant response rating, Corn [6, 23] | Plant response rating, Lambsquarters [7, 21] | Plant response rating (scale of 0 to 100), Lambsquarters ([7]; Preemergence, 250 g ai/ha)
15: Plant response rating, Ryegrass, Italian [5, 20] | Plant response rating, Soybean [9, 21]
65: Plant response rating, Lambsquarters [7, 20] | Plant response rating, Barnyardgrass [10, 19] | Plant response rating, Waterhemp [11, 21]
